Like-named read-outs stand apart in the source and are kept apart here.

A short description of data set [1]: clinical. Set-up: species or system human. To be noted: in vivo. From the text: A multiple-dose, open-label, dose-escalation study was designed in which 12 healthy male subjects were scheduled to receive 1 of 2 treatments once daily for 3 days with an 11-day washout period between doses.
The objective of this Phase 1 study was to assess the safety and pharmacokinetic (PK) profile of multiple dose administration of 0.25 g and 1.00 g of a 0.07% transdermal estradiol gel in healthy male volunteers. The transdermal gel used had the following formulation: […]
Twelve (12) healthy subjects were enrolled and participated in two open-label treatment periods. Subjects who successfully completed the screening process checked into the research center on Day 1, approximately 1 to 2 hours prior to the first blood draw of each treatment period. For Treatment Period A, 0.25 g of the 0.07% gel was to be administered once daily for three days. During Treatment Period B, 1.0 g of the 0.07% gel was to be administered once daily for three days. Dosing days were to be separated by a washout period of at least 11 days.
Diagnosis and Main Criteria for Inclusion: Healthy adult male volunteers, 18-45 years of age, with body mass index (BMI) between 18 and 30 kg/m2, inclusive, and minimum weight of 50 kg (110 pounds).

A short description of data set [2]: Solubility of ethyl oleate as a function of ethanol concentration. To be noted: for Amount of Ethyl Oleate solubilised in g/100 g: room temperature, 0.24% estradiol, 5% propylene glycol, 2% oleic acid, Qsf water. Type of data set: physicochemical. From the text:
In particular, it appears that the more ester is present in the composition, the better the storage depot effect is. […] An upper limit is imposed, however, by the solubility of the fatty acid ester in the composition.

A word on the AUC(0-t): it is exposure summed from dosing to a finite time, without extrapolation to infinity. Low readings indicate low exposure, high ones high exposure. One may read the AUC as concentration integrated over time. Low readings indicate less exposure, high ones more exposure. By Cmax is commonly meant the peak of the concentration-time curve. With `C[C@]12CC[C@@H]3c4ccc(O)cc4CC[C@H]3[C@@H]1CC[C@@H]2O` [Estradiol, estradiol], the “dose proportionality of exposure” value in data set [1] was “less than proportional increase in exposure”. For the same compound, in data set [1] (male, human), the “AUC0-24” value turned out to be 752.2 pg·h/mL, the “AUC0-120” value amounted to 2933 pg·h/mL, the “AUC24-48” value was 661.0 pg·h/mL and the “AUC48-72” value was determined as 658.1 pg·h/mL. In addition, in data set [1] (male, human), the “AUC(0-t)” value worked out at 4.436 ng·h/mL, the “Cmax-overall” value came out at 64.6 pg/mL, the “increase in overall systemic exposure based on AUC0-120” value worked out at 1.26 fold and the “increase in peak systemic exposure based on Cmax0-120” value was determined as 1.95 fold. In addition, in data set [1] (male, human), the “increase of estradiol concentrations above baseline” value is recorded as 2- to 3 fold, the “ratio (0.25 g: 1.00 g) for estradiol AUC0-120” value is given as 80.01% and the “ratio (0.25 g: 1.00 g) for estradiol Cmax0-120” value is reported as 47.89%. For the same compound, the Tmax in data set [1] (male, human, 0.25 g of 0.07% estradiol gel (Example 10) once daily for 3 days, healthy males, Mean, N 12, read-out: Tmax-overall) was found to be 54.8 h. For the same compound, the Tmax in data set [1] (male, human, 0.25 g, first dosing interval, read-out: Estradiol Tmax after administration of the gel) was around 13 h. In addition, in data set [1] (male, human, 0.25 g, third dosing interval, read-out: Estradiol Tmax after administration of the gel), the Tmax was around 3 h. Moreover, the Tmax in data set [1] (male, human, 1.00 g of 0.07% estradiol gel (Example 10) once daily for 3 days, healthy males, Mean, n 11, read-out: Tmax-overall) came out at 29.8 h. Besides, the AUC(0-t) in data set [1] (male, human, AUC0-24 (hr * pg/mL)) came to 0.477 ng·h/mL. For the same compound, the AUC(0-t) in data set [1] (male, human, AUC0-120 (hr * pg/mL)) turned out to be 2.33 ng·h/mL. In addition, in data set [1] (male, human, AUC0-t (hr * pg/mL)), the area under the curve AUC(0-t) is 3.78 ng·h/mL. The AUC in data set [1] (male, human, AUC24-48 (hr * pg/mL)) was 0.503 ng·h/mL. Also, the exposure (AUC) in data set [1] (male, human, AUC48-72 (hr * pg/mL)) was 0.477 ng·h/mL. Moreover, in data set [1] (male, human, Cmax-overall (pg/mL)), the Cmax was 0.0331 ng/mL.
As for `CCCCCCCC/C=C\CCCCCCCC(=O)OCC` [Ethyl Oleate, ethyl oleate], the “Amount of Ethyl Oleate solubilised in g/100 g” value in data set [2] (EtOH (96% v/v) 64%) is listed as 0.65 g/100 g; in data set [2] (EtOH (96% v/v) 66%), 0.91 g/100 g; in data set [2] (EtOH (96% v/v) 68%) it was 1.28 g/100 g; in data set [2] (EtOH (96% v/v) 70%), 1.60 g/100 g; in data set [2] (EtOH (96% v/v) 72%) it was 2.19 g/100 g; in data set [2] (EtOH (96% v/v) 73%), 2.40 g/100 g. The “maximum ethyl oleate that can be dissolved” value in data set [2] (formulation comprising 72% ethanol) is at most 2.2%.

The values above are taken from patent publication US11040043B2, “Transdermal pharmaceutical compositions comprising active agents” (priority 2009, dated 2021).
